Several values for one entry are separate records, joined by “and”; a condition that tells them apart may be missing. Identical values can stand only once. Inconclusive results and toxic doses are left out. No stated cut-off is given here; in the data, active means T/C of 150% or more; inactive means T/C below 125%.
Tested on: L1210 leukemia ip in BDF1 mice, survival T/C
Assay: NCI In Vivo Anticancer Drug Screen. Data for tumor model L1210 Leukemia (intraperitoneal) in B6D2F1 (BDF1) mice
Conditions: endpoint: mean survival time, higher = longer survival
Summary of the method: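 Antitumor effect is assessed in tumor-bearing animals. Survival in the compound arm is compared with a vehicle-dosed control arm and expressed as their quotient.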

[1] = dose: 100.0 mg/kg/injection, schedule: Q01DX001 (ip), vehicle: saline
[2] = dose: 200.0 mg/kg/injection, schedule: Q01DX001 (ip), vehicle: saline
[3] = dose: 400.0 mg/kg/injection, schedule: Q01DX001 (ip), vehicle: saline
[4] = dose: 100.0 mg/kg/injection, schedule: Q04DX003 (ip), vehicle: Klucel (hydroxypropylcellulose) (HPC)
[5] = dose: 200.0 mg/kg/injection, schedule: Q04DX003 (ip), vehicle: Klucel (hydroxypropylcellulose) (HPC)
[6] = dose: 400.0 mg/kg/injection, schedule: Q04DX003 (ip), vehicle: Klucel (hydroxypropylcellulose) (HPC)
[7] = dose: 100.0 mg/kg/injection, schedule: Q04DX003 (ip), vehicle: saline with Tween-80
[8] = dose: 200.0 mg/kg/injection, schedule: Q04DX003 (ip), vehicle: saline with Tween-80
[9] = dose: 400.0 mg/kg/injection, schedule: Q04DX003 (ip), vehicle: saline with Tween-80
[10] = dose: 75.0 mg/kg/injection, schedule: Q01DX001 (ip), vehicle: saline
[11] = dose: 25.0 mg/kg/injection, schedule: Q01DX009 (ip), vehicle: Klucel (hydroxypropylcellulose) (HPC)
[12] = dose: 50.0 mg/kg/injection, schedule: Q01DX009 (ip), vehicle: Klucel (hydroxypropylcellulose) (HPC)
[13] = dose: 100.0 mg/kg/injection, schedule: Q01DX009 (ip), vehicle: Klucel (hydroxypropylcellulose) (HPC)
[14] = dose: 100.0 mg/kg/injection, schedule: Q01DX001 (ip), vehicle: carboxymethylcellulose (CMC)
[15] = dose: 200.0 mg/kg/injection, schedule: Q01DX001 (ip), vehicle: carboxymethylcellulose (CMC)
[16] = dose: 400.0 mg/kg/injection, schedule: Q01DX001 (ip), vehicle: carboxymethylcellulose (CMC)

Measured: T/C

O=S(=O)(c1ccccc1)C1CC1(c1ccccc1)c1ccccc1 (stereo unspecified)
inactive: [1] 92 % of control | [2] 93 % of control | [3] 90 % of control

C(#CP(c1ccccc1)c1ccccc1)c1ccccc1
inactive: [4] 93 % of control | [5] 97 % of control | [6] 95 % of control

CC(=O)c1ccccc1OCC(O)CN1CCN(c2cccc(C(F)(F)F)c2)CC1 (stereo unspecified)
inactive: [7] 106 % of control | [8] 108 % of control | [9] 108 % of control

OC1CC2C3CCC(C3)C2C1O (stereo unspecified)
inactive: [7] 106 % of control | [8] 90 % of control

C=C1C(=O)OC2CC3(C)C(OC(C)=O)CC=C(C)C3C(OC(C)=O)C12 (stereo unspecified) (tested in a mixture with another compound)
inactive: [10] 96 % of control | dose: 150.0 mg/kg/injection, schedule: Q01DX001 (ip), vehicle: saline 100 % of control

O=C(NNC(=S)Nc1cccc(Cl)c1)c1ccncc1
inactive: [11] 104 % of control | [12] 96 % of control | [13] 96 % of control

COc1ccc(Nc2cc(N)nc(N)n2)cc1
inactive: dose: 25.0 mg/kg/injection, schedule: Q01DX Z (ip), vehicle: methylcellulose (MC) 93 % of control | dose: 50.0 mg/kg/injection, schedule: Q01DX Z (ip), vehicle: methylcellulose (MC) 87 % of control

CSC(=S)NNC(=O)c1ccc(C)cc1
inactive: dose: 20.0 mg/kg/injection, schedule: Q04DX003 (ip), vehicle: saline 96 % of control | dose: 40.0 mg/kg/injection, schedule: Q04DX003 (ip), vehicle: saline 98 % of control | [10] 98 % of control | dose: 75.0 mg/kg/injection, schedule: Q04DX003 (ip), vehicle: saline 105 % of control

O=C1c2ccccc2C(=O)c2c1ccc1c2[nH]c2ccccc21
inactive: [14] 86 % of control | [15] 91 % of control | [16] 89 % of control

O/N=C\c1ccnc2ccccc12
inactive: dose: 100.0 mg/kg/injection, schedule: Q01DX009 (ip), vehicle: carboxymethylcellulose (CMC) 93 % of control and 98 % of control | dose: 100.0 mg/kg/injection, schedule: Q04DX002 (ip), vehicle: carboxymethylcellulose (CMC) 100 % of control (2×) and 104 % of control | dose: 100.0 mg/kg/injection, schedule: Q04DX003 (ip), vehicle: carboxymethylcellulose (CMC) 97 % of control | dose: 200.0 mg/kg/injection, schedule: Q01DX009 (ip), vehicle: carboxymethylcellulose (CMC) 105 % of control and 90 % of control | dose: 200.0 mg/kg/injection, schedule: Q04DX002 (ip), vehicle: carboxymethylcellulose (CMC) 95 % of control and 100 % of control (2×) | dose: 200.0 mg/kg/injection, schedule: Q04DX003 (ip), vehicle: carboxymethylcellulose (CMC) 104 % of control | dose: 400.0 mg/kg/injection, schedule: Q01DX009 (ip), vehicle: carboxymethylcellulose (CMC) 98 % of control | dose: 400.0 mg/kg/injection, schedule: Q04DX002 (ip), vehicle: carboxymethylcellulose (CMC) 100 % of control and 104 % of control and 90 % of control | dose: 400.0 mg/kg/injection, schedule: Q04DX003 (ip), vehicle: carboxymethylcellulose (CMC) 98 % of control

CC(=O)OC1CC(n2cc(C)c(=O)[nH]c2=O)OC1CO (stereo unspecified)
inactive: dose: 100.0 mg/kg/injection, schedule: Q01DX005 (ip), vehicle: saline 112 % of control | dose: 200.0 mg/kg/injection, schedule: Q01DX005 (ip), vehicle: saline 109 % of control

CCOC(=O)C1CCC(NC(=O)c2ccccc2)CC1 (stereo unspecified)
inactive: dose: 100.0 mg/kg/injection, schedule: Q01DX001 (ip), vehicle: Klucel (hydroxypropylcellulose) (HPC) 93 % of control | [4] 100 % of control | dose: 200.0 mg/kg/injection, schedule: Q01DX001 (ip), vehicle: Klucel (hydroxypropylcellulose) (HPC) 93 % of control | [5] 98 % of control | dose: 400.0 mg/kg/injection, schedule: Q01DX001 (ip), vehicle: Klucel (hydroxypropylcellulose) (HPC) 93 % of control | [6] 94 % of control

CC1=C(O)C(=O)C(c2c(C)cc(C)c(Br)c2C)=C(O)C1=O
inactive: dose: 75.0 mg/kg/injection, schedule: Q01DX009 (ip), vehicle: Klucel (hydroxypropylcellulose) (HPC) 117 % of control

CCCCN(CCCC)CCCCCN
inactive: dose: 25.0 mg/kg/injection, schedule: Q01DX Z (ip), vehicle: carboxymethylcellulose (CMC) 106 % of control | dose: 50.0 mg/kg/injection, schedule: Q01DX Z (ip), vehicle: carboxymethylcellulose (CMC) 86 % of control | dose: 100.0 mg/kg/injection, schedule: Q01DX Z (ip), vehicle: carboxymethylcellulose (CMC) 90 % of control

c1cncc(-c2ncnc3c2Cc2ccccc2-3)c1
inactive: [4] 97 % of control | [5] 111 % of control

C=Cc1cnc(N)nc1-c1ccccc1
inactive: [7] 90 % of control | [8] 105 % of control | [9] 97 % of control

CC(=O)OCCN1C(=O)c2ccccc2C1=O
inactive: [4] 104 % of control | [5] 117 % of control | [6] 101 % of control

O=C1CN(C2OC(CO)C(O)C2O)C(=O)NC1=O (stereo unspecified)
inactive: dose: 132.0 mg/kg/injection, schedule: Q01DX Z (ip), vehicle: carboxymethylcellulose (CMC) 107 % of control | dose: 200.0 mg/kg/injection, schedule: Q01DX Z (ip), vehicle: carboxymethylcellulose (CMC) 110 % of control | dose: 299.0 mg/kg/injection, schedule: Q01DX Z (ip), vehicle: carboxymethylcellulose (CMC) 124 % of control | dose: 449.0 mg/kg/injection, schedule: Q01DX Z (ip), vehicle: carboxymethylcellulose (CMC) 107 % of control

COC(=O)CCC(N=C=O)C(=O)OC (stereo unspecified)
inactive: [1] 101 % of control | [2] 98 % of control | [3] 106 % of control

O=C(Nc1ccccc1)NC(C(=O)O)(c1ccccc1)c1ccccc1
inactive: dose: 50.0 mg/kg/injection, schedule: Q01DX001 (ip), vehicle: other 97 % of control | dose: 100.0 mg/kg/injection, schedule: Q01DX001 (ip), vehicle: other 89 % of control | dose: 200.0 mg/kg/injection, schedule: Q01DX001 (ip), vehicle: other 92 % of control

C/C(=C\CC1(C)C(=O)CCC2(C)C1CCCC21OCCO1)Sc1ccc(Cl)cc1 (stereo unspecified)
inactive: dose: 100.0 mg/kg/injection, schedule: Q04DX002 (ip), vehicle: Klucel (hydroxypropylcellulose) (HPC) 89 % of control | dose: 200.0 mg/kg/injection, schedule: Q04DX002 (ip), vehicle: Klucel (hydroxypropylcellulose) (HPC) 95 % of control | dose: 400.0 mg/kg/injection, schedule: Q04DX002 (ip), vehicle: Klucel (hydroxypropylcellulose) (HPC) 110 % of control

O=P(NO)(c1ccccc1)c1ccccc1
inactive: [14] 92 % of control | [15] 95 % of control | [16] 95 % of control

COc1ccc([N+](=O)[O-])cn1
inactive: [7] 98 % of control | [8] 91 % of control | [9] 88 % of control

CC(C)(C)C1(C)CNC(=O)O1 (stereo unspecified)
inactive: dose: 6.0 mg/kg/injection, schedule: Q01DX009 (ip), vehicle: Klucel (hydroxypropylcellulose) (HPC) 100 % of control | dose: 12.0 mg/kg/injection, schedule: Q01DX009 (ip), vehicle: Klucel (hydroxypropylcellulose) (HPC) 104 % of control | [11] 102 % of control | dose: 25.0 mg/kg/injection, schedule: Q04DX003 (ip), vehicle: Klucel (hydroxypropylcellulose) (HPC) 102 % of control | [12] 101 % of control | dose: 50.0 mg/kg/injection, schedule: Q04DX003 (ip), vehicle: Klucel (hydroxypropylcellulose) (HPC) 102 % of control | [13] 101 % of control | [4] 95 % of control and 89 % of control

Reference: PubChem BioAssay AID248 (DTP/NCI, 2004)
